Results: patent US6767918B2, “N-(aryl/heteroarylacetyl) amino acid esters, pharmaceutical compositions comprising same, and methods for inhibiting β-amyloid peptide release and/or its synthesis by use of such compounds” (Athena Neurosciences, Inc., priority 1996, dated 2004)

| melting point | Structure (SMILES) |
| --- | --- |
| 81 to 83 °C | CC(C)COC(=O)[C@H](C)NC(=O)Cc1ccc(Cl)c(Cl)c1 [Example 5, N-[(3,4-dichlorophenyl)acetyl]-L-alanine iso-butyl ester] |
| 102 to 104 °C | Cc1ccc(CC(=O)NC(C)C(=O)OCC(C)C)cc1 (racemic) [Example 6, N-[(4-methylphenyl)acetyl]-D,L-alanine iso-butyl ester] |
| 111 to 113 °C | CC(C)COC(=O)[C@H](C)NC(=O)Cc1ccc(Cl)cc1 [Example 4, N-[(4-chlorophenyl)acetyl]-L-alanine iso-butyl ester] |
| 45 to 47 °C | CC(C)COC(=O)[C@H](C)NC(=O)Cc1ccccc1 [Example 13, N-(phenylacetyl)-L-alanine iso-butyl ester] |
| 49 to 51 °C | CC(C)COC(=O)[C@H](C)NC(=O)CC1=CCCCC1 [Example 72, N-[(cyclohex-1-enyl)acetyl]-L-alanine iso-butyl ester] |
| 92 to 93 °C | CC(C)COC(=O)[C@H](C)NC(=O)CC1CCCCC1 [Example 70, N-(cyclohexylacetyl)-L-alanine iso-butyl ester] |
| 62 to 64 °C | CC(C)COC(=O)C(C)NC(=O)Cc1cccnc1 (racemic) [Example 7, N-[(3-pyridyl)acetyl]-D,L-alanine iso-butyl ester] |
| 69 to 73 °C | CC(C)COC(=O)[C@H](C)NC(=O)Cc1cccc2ccccc12 [Example 8, N-[(1-naphthyl)acetyl]-L-alanine iso-butyl ester] |
| 128 to 129 °C | CC(C)COC(=O)[C@H](C)NC(=O)Cc1ccc2ccccc2c1 [Example 9, N-[(2-naphthyl)acetyl]-L-alanine iso-butyl ester] |
| 93 to 95 °C | CCOC(=O)[C@H](C)NC(=O)Cc1cc(F)cc(F)c1 [Example 64, N-[(3,5difluorophenyl)acetyl]alanine ethyl ester] |
| 64 to 66 °C | CC(C)COC(=O)C(C)NC(=O)Cc1ccncc1 (racemic) [Example 12, N-[(4-pyridyl)acetyl]-D,L-alanine iso-butyl ester] |
| 62 to 64 °C | CC(C)COC(=O)[C@H](C)NC(=O)CC1CCCC1 [Example 71, N-(cyclopentylacetyl)-L-alanine iso-butyl ester] |
